In one test the test system is THP-1. The test can be described thus: Host cell toxicity: THP-1 host nuclei counts in the image-based assay. The note with it: for GI50: read-out: GI50 THP-1; for Selectivity: ratio between parasite GI50 and THP-1 GI50. Here is the method:
(§1) Sterile, black, 96-well, clear bottom plates (Greiner Bio-One) were seeded with exponentially growing THP-1 (5×10^5cells/ml). THP-1 were treated with 0.1 µM phorbol myristate acetate (PMA, Sigma) at 37°C for 48 h to achieve differentiation into adherent, non-dividing macrophages. Maturation of THP-1 cells towards monocyte-macrophage like cells is essential to avoid parasitized cells being overgrown by replicating cells. After activation by PMA, cells were washed and incubated with complete RPMI medium containing stationary phase L. donovani promastigotes at a macrophage/promastigote ratio of 1/15. After 4 h incubation at 37°C, non-internalized promastigotes were removed by 2–3 successive washes with RPMI containing 5% FBS and 5% horse serum. Test compounds (10 µM), positive control (2 µM amphotericin B) or negative control (1% DMSO) were then added to the cultures using a Biomek FXp liquid handler (Beckman Coulter). Cultures were incubated at 37°C for 72 h. Cells were then washed with phosphate-buffered saline (PBS), fixed for 30 minutes with 4% formaldehyde, rinsed again with PBS, stained for 2 h with 4′,6′-diamidino-2-phenylindole (DAPI 300 nM) and finally washed with PBS. […] Images were acquired with an INCell Analyzer 1000 automated epi-fluorescent microscope (G.E. Healthcare). The excitation and emission filters used to detect DAPI were 350/50 nm and 460/40 nm respectively. Eight image fields were acquired per well with a 20X objective. The proprietary INCell Developer Toolbox 1.7 software was used for image analysis. Segmentation parameters were set to identify host nuclei with a minimum area of 250 µm^2 and parasite kinetoplast with an average area of 1 µm^2. The intensity of parasite nucleus was too low to be detected with a 20X objective. A border, representing the boundary of the cell, was drawn around the nucleus (total area between 700 and 2000 µm^2). Only parasites found within this area were included in the calculation to eliminate extracellular parasites. False positive parasite detection in the nucleus was also excluded from the calculation. Host cell nuclei and parasite kinetoplasts were counted and the ratio of parasites DNA to host nuclei was selected as the measurement output. Percentage inhibition of parasite growth was calculated as [1-(P/hcx-P/hc^+)/(P/hc^−-P/hc^+)]*100 where P/hcx, P/hc^+ and P/hc^− are parasite per host cell ratio for every well, positive control (amphotericin B) and negative control (DMSO) respectively. Calculation of Z' factor and GI50 curve fitting were carried out as described above.

For test [1], the system named is L. donovani promastigotes. The experiment in a line: Promastigote high-throughput ATP-bioluminescence assay. The note with it: 72 h at 27°C, CellTiter-Glo, read-out: GI50 Promastigote. In kind it is cell-based, Leishmania donovani. The procedure:
L. donovani promastigotes from an exponentially growing culture were diluted to 10^6/ml in RPMI containing 10% FBS and 10% BHT. The diluted culture (99 µl/well) was dispensed in sterile 96-well flat white opaque assay plates (Greiner Bio-One) using a WellMate multichannel dispenser (Matrix). 1 µl of 1 mM test compound dissolved in DMSO was added to the plates for a final concentration of 10 µM compound and 1% DMSO. Amphotericin B was added as a positive control (final concentration 2 µM, 1% DMSO) and as a negative control, 1 µl DMSO was added (1% final concentration). Compounds and controls were added to the assay plate with the robotic dispenser Biomek FXp liquid handler (Beckman Coulter). Promastigotes were incubated with the compounds for 72 h at 27°C. The parasites were then lysed by adding 50 µl of CellTiter-Glo (Promega) and placed on an orbital shaker for 5 min at room temperature. After lysis, the resulting ATP-bioluminescence was measured using the Analyst HT plate reader (Molecular Devices). Percentage inhibition of parasite growth was calculated for each well as [1-(RLUx-RLU^+)/(RLU^--RLU^+)]*100 where RLUx, RLU^+ and RLU^- are respectively the Relative Light Units for each well, positive (amphotericin B) and negative (DMSO) controls. A screening window coefficient, denoted Z' factor, was used to evaluate the performance of the assay. The Z' factor, calculated as 1-(3σc++3σc−)/(µc+−µc−) where σc+, σc−, µc+ and µc− are respectively the standard deviation and mean values of positive and negative controls, is reflective of the assay signal dynamic range and the data variation associated with signal measurement. […] GI50 curve fitting was carried out using GraphPad Prism 4 Software (GraphPad Software Inc., San Diego, CA).
(ATP-based viability assays read luminescence as a measure of living cells.)

Test [2] has as its system L. donovani axenic amastigotes. The experiment in a line: Dose response study against axenic amastigotes (CellTiter-Glo). In kind it is cell-based, Leishmania donovani. The conditions noted are these: 72 h at 37°C, CellTiter-Glo, read-out: GI50 Axenic amastigote. Here is the method:
L. donovani axenic amastigotes (5×10^5 cells/ml in axenic amastigote media) were dispensed in sterile 96-well flat white opaque assay plates (Greiner Bio-One) using a WellMate multichannel dispenser (Matrix). […] 1% DMSO and amphotericin B (2 µM, 1% DMSO final concentration) were added as negative and positive controls respectively. Axenic amastigotes were incubated with the compounds for 72 h at 37°C with 5% CO2. Parasite viability was then measured using CellTiter-Glo as described above.

The test system of test [3] is L. donovani intracellular amastigotes. The test can be described thus: Intracellular amastigote high-throughput image-based assay in infected THP-1 macrophages. In kind it is cell-based, Leishmania donovani. The note with it: for GI50: L. donovani in THP-1, 72 h, parasites per host cell, read-out: GI50 Intracellular amastigote. Here is the method:
as §1

Where [4] appears, read: PMA-differentiated infected THP-1, 72 h, host nuclei count.
Where [5] appears, read: ratio between promastigote GI50 and intracellular amastigote GI50, >2 more active against intracellular amastigote, <0.4 more active against promastigotes.
[6] abbreviates: Leishmania donovani, THP-1, 72 h.

Where a name gives a salt, the structure may show the parent alone. Read-outs that look alike come from different tables or passages of the source. Where only a bound is given, the exact number is not on record here.

Turning to `O=C(Nc1ccc(Cl)c(Cl)c1)c1cc(Cl)cc(Cl)c1O` [3,3′,4′,5-tetrachlorosalicylanilide], the GI50 in the test with THP-1 (Homo sapiens, THP-1, 72 h) turned out to be 0.32 µM; in test [1] (Leishmania donovani), 1.45 µM; in test [2] (Leishmania donovani), 1.38 µM. The Selectivity in the test on THP-1 stood at 0.22.
Take `CCC(c1ccc(OCCN(CC)CC)cc1)C(CC)c1ccc(OCCN(CC)CC)cc1` (stereo not drawn) [4,4′-Diethylaminoethoxyhexestrol]: the Selectivity in the test on THP-1 is 4.36. In addition, the GI50 in the test with THP-1 (setting [4]) was found to be 6.11 µM; in test [3] it was 1.4 µM; in test [1], 5 µM; in test [2] it was 10.9 µM. In test [3] (setting [5]), the Specificity worked out at 3.57.
Consider `CC[C@@]1(O)C[C@H](O[C@H]2C[C@H](N(C)C)[C@H](O[C@H]3C[C@H](O)[C@H](O[C@H]4CCC(=O)[C@H](C)O4)[C@H](C)O3)[C@H](C)O2)c2c(cc3c(c2O)C(=O)c2c(O)cccc2C3=O)[C@H]1C(=O)OC` [Aclacynomycine a1], for which, in the test on THP-1, the Selectivity was determined as 5. The GI50 in the test on THP-1 (setting [4]) was 29.1 µM; in test [3], 5.81 µM; in test [1] it was 9.15 µM; in test [2], greater than 16.5 µM. In addition, the Specificity in test [3] (setting [5]) worked out at 1.57.
Turning to `Nc1c2ccccc2nc2ccccc12` [Aminacrine], the GI50 with THP-1 (Homo sapiens, THP-1, 72 h) was 13 µM; in test [3] (setting [6]), 1.9 µM; in test [1] (Leishmania donovani), 8.96 µM; in test [2] (Leishmania donovani), greater than 16.5 µM. Moreover, the Selectivity with THP-1 was found to be 6.82. Also, in test [3] (setting [5]), the Specificity was 4.71.
As to `CCOC(=O)C1=C(COCCN)NC(C)=C(C(=O)OC)C1c1ccccc1Cl` (stereo not drawn) [Amlodipine], the GI50 is greater than 16.5 µM with THP-1 (Homo sapiens, THP-1, 72 h); 9.78 µM in test [3] (setting [6]); 3.11 µM in test [1] (Leishmania donovani); 27 µM in test [2] (Leishmania donovani). Also, in test [3] (setting [5]), the Specificity was found to be 0.31.
With `C[C@@H]1[C@H](O)[C@@H](C)/C=C/C=C/C=C/C=C/C=C/C=C/C=C/[C@H](O[C@@H]2O[C@H](C)[C@@H](O)[C@H](N)[C@@H]2O)C[C@@H]2O[C@](O)(C[C@@H](O)C[C@@H](O)[C@H](O)CC[C@@H](O)C[C@@H](O)CC(=O)O[C@H]1C)C[C@H](O)[C@H]2C(=O)O` [Amphotericin B], the GI50 in the test with THP-1 (Homo sapiens, THP-1, 72 h) is greater than 50 µM; in test [3] it was 1.12 µM; in test [1] (Leishmania donovani), 1.61 µM; in test [2] (Leishmania donovani), 5.42 µM. In addition, the Selectivity with THP-1 is on record as 44.52. Further, the “Effect on growth of intracellular L. donovani” value in test [3] (2 µM, 72 h) is “significantly inhibited growth”. The “Primary screen against intracellular amastigotes, hit selection” value in test [3] (10 µM, duplicates, hit = 60% parasite growth inhibition and not more than 20% reduction in THP-1 numbers) is given as “active”. In test [3] (setting [5]), the Specificity was found to be 1.43.
In the case of `CCCCCC[C@H]1C(=O)O[C@H](C)[C@H](NC(=O)c2cccc(NC=O)c2O)C(=O)O[C@@H](C)[C@@H]1OC(=O)CC(C)C` [Antimycin A], the concentration for 50% growth inhibition (GI50) was greater than 50 µM with THP-1 (Homo sapiens, THP-1, 72 h); 2.15 µM in test [3] (setting [6]); 0.1 µM in test [1] (Leishmania donovani); 0.01 µM in test [2] (Leishmania donovani). For the same molecule, in the test with THP-1, the Selectivity is 500. Besides, the Specificity in test [3] (setting [5]) is listed as 0.05.
As for `CC(=O)OC[C@H]1O[C@@H]([S-])[C@H](OC(C)=O)[C@@H](OC(C)=O)[C@@H]1OC(C)=O.CCP(CC)CC.[Au+]` [Auranofin], the Selectivity with THP-1 is given as 1.88. Moreover, the GI50 was 20.9 µM in the test on THP-1 (setting [4]), 21.8 µM in test [3], 11.1 µM in test [1] and greater than 50 µM in test [2]. The Specificity in test [3] (setting [5]) is listed as 0.51.
For `Cc1c(-c2ccc(O)cc2)n(Cc2ccc(OCCN3CCCCCC3)cc2)c2ccc(O)cc12` [Bazedoxifene], the values for the GI50 in test [1] (Leishmania donovani) and in test [2] (Leishmania donovani) were 6.52 µM and greater than 16.5 µM, respectively.
Take `CC(C)(C)CC(C)(C)c1ccc(OCCOCC[N+](C)(C)Cc2ccccc2)cc1.[Cl-]` [Benzetonium chloride]: the figures for the 50% growth inhibitory concentration (GI50) in test [3], in test [1] and in test [2] were 10 µM, 11.3 µM and 10.7 µM, respectively. The Specificity in test [3] (setting [5]) was 1.13.
Molecule `CCCCCCCCCCCCCCCC[n+]1ccccc1` [Cetylpyridinium chloride] registered a Specificity in test [3] of 8.05.
On to `C[C@@H]1CC[C@@]2(OC1)O[C@H]1[C@@H](O)[C@H]3[C@@H]4CC[C@H]5C[C@@H](O[C@@H]6O[C@H](CO)[C@H](O[C@@H]7O[C@H](CO)[C@@H](O)[C@H](O[C@@H]8OC[C@@H](O)[C@H](O)[C@H]8O)[C@H]7O[C@@H]7O[C@H](CO)[C@H](O)[C@H](O[C@@H]8O[C@H](CO)[C@@H](O)[C@H](O)[C@H]8O)[C@H]7O)[C@H](O)[C@H]6O)[C@H](O)C[C@]5(C)[C@H]4CC[C@]3(C)[C@H]1[C@@H]2C` [Digitonin], for which the GI50 is 13.5 µM with THP-1 (Homo sapiens, THP-1, 72 h); 4.38 µM in test [1] (Leishmania donovani); 13.8 µM in test [2] (Leishmania donovani). Further, the Selectivity in the test with THP-1 was 3.075.
Take `CC(=O)[C@]1(O)Cc2c(O)c3c(c(O)c2[C@@H](O[C@H]2C[C@H](N)[C@H](O)[C@H](C)O2)C1)C(=O)c1ccccc1C3=O` [Idarubicin]: the GI50 with THP-1 (Homo sapiens, THP-1, 72 h) stood at 1.89 µM; in test [1] (Leishmania donovani), 4.65 µM; in test [2] (Leishmania donovani), 1.78 µM. Further, in the test with THP-1, the Selectivity is listed as 0.40.
For `CN(C)C(=O)C(CCN1CCC(O)(c2ccc(Cl)cc2)CC1)(c1ccccc1)c1ccccc1` [Loperamide Hydrochloride], the concentration for 50% growth inhibition (GI50) is 17.3 µM in test [1] (Leishmania donovani) and greater than 50 µM in test [2] (Leishmania donovani).
As for `Clc1ccc(CO/N=C(\Cn2ccnc2)c2ccc(Cl)cc2Cl)c(Cl)c1` [Oxiconazole], in test [3] (setting [5]), the Specificity was found to be 0.40.
Consider `COc1c(Cl)cc2c(c1OC)N(C)[C@@H]1N3C(=O)[C@@]4(C)SS[C@@]3(C(=O)N4C)[C@H](O)[C@]21O` [Sporidesmin A], for which the Selectivity in the test with THP-1 is reported as 0.02. In addition, the results for the GI50 (in the test with THP-1 (setting [4]); in test [1]; in test [2]) were 0.02 µM, 1.18 µM and 1.66 µM, respectively.
On to `CC(C)(C)c1ccc(C(O)CCCN2CCC(C(O)(c3ccccc3)c3ccccc3)CC2)cc1` (stereo not drawn) [Terfenadine], for which the GI50 in test [1] (Leishmania donovani) was 11.9 µM; in test [2] (Leishmania donovani) it was 0.61 µM.
For the molecule `C[CH2][Hg][S]c1ccccc1C(=O)[O-].[Na+]` [Thimerosal], the Selectivity in the test on THP-1 stood at 26.18. The concentration for 50% growth inhibition (GI50) in the test on THP-1 (setting [4]) came to 12.8 µM; in test [1], 0.49 µM; in test [2], 1.5 µM.
Consider `CCCCN(CCCC)C(=S)[S-].CCCCN(CCCC)C(=S)[S-].[Zn+2]` [Zinc Dibutyldithiocarbamate], for which, in the test with THP-1, the Selectivity came to 5.89. In test [3], this molecule registered a Specificity of 0.17.
For the molecule Gramicidin, in the test with THP-1, the Selectivity is 12.19. The concentration for 50% growth inhibition (GI50) with THP-1 (setting [4]) is 8.38 µM; in test [1], 0.68 µM; in test [2] it was 5.76 µM.

Usually GI50 stands for the concentration giving 50% growth inhibition.

Values taken from article PMC3139667, “A Screen against Leishmania Intracellular Amastigotes: Comparison to a Promastigote Screen and Identification of a Host Cell-Specific Hit” (PLoS Neglected Tropical Diseases, 2011).
